In patent publication US20020137929A1, “1 - (3-heterocyclylphenyl) isothiourea, -isourea, -guanidine and -amidine herbicidal agents” (Intellectual Property Department, BASF Aktiengesellschaft, priority 1998, published 2002):

Key:
[1] = test system: GLXMAW (Soybean, Williams); experiment: Preemergence herbicidal evaluation; format: in vivo, Glycine max, (L.) Merr. cv Williams; conditions: rated 4-5 weeks after treatment
How it was run: (§1)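 Sown cups got a single aqueous acetone spray of test compound (roughly 0.0156–0.500 kg/ha) before seedlings emerged. Evaluation, 4–5 weeks on, used a 0–9 visual scale covering plant stand, vigor, size, malformation, chlorosis and general appearance compared with controls.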

[2] = test system: CASOB (Sicklepod); experiment: Postemergence herbicidal evaluation; format: in vivo, Cassia obtusifolia; conditions: postemergence
How it was run: (§2)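 Rate range approx. 0.0156–0.500 kg/ha. Foliar application at 40 psi to ~2-week seedlings; surfactant 0.5% TWEEN 20 in 50/50 acetone/water. Evaluation 4–5 wk post-treatment by 0–9 visual injury score, means of replicate tests.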

[3] = test system: TRZAWR (Wheat, Winter, cv Riband); experiment: Preemergence herbicidal evaluation; format: in vivo, Triticum aestivum; conditions: rated 4-5 weeks after treatment
How it was run: as §1

[4] = test system: ORYSAT (Rice, Tebonnet); experiment: Preemergence herbicidal evaluation; format: in vivo, Oryza sativa, (L.) Tebonnet; conditions: rated 4-5 weeks after treatment
How it was run: as §1

[5] = test system: ZEAMX (Corn, Field); experiment: Preemergence herbicidal evaluation; format: in vivo, Zea mays; conditions: rated 4-5 weeks after treatment
How it was run: as §1

[6] = test system: ORYSAT (Rice, Tebonnet); experiment: Postemergence herbicidal evaluation; format: in vivo, Oryza sativa, (L.) Tebonnet; conditions: postemergence
How it was run: as §2

[7] = test system: CYPIR (Rice Flatsedge); experiment: Preemergence weed control under flooded paddy conditions; format: in vivo, Cyperus iria; conditions: rated 3-4 weeks after treatment
How it was run: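 First, seeds or propagules go into the top 0.5 cm of silt loam; next, water is held 1.5 to 3 cm over the soil; then compound (50/50 acetone/water) is pipetted into it at about 0.0313 to 0.500 kg/ha; finally plants are rated visually 0-9 after three to four weeks.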

[8] = test system: SAGPY (Arrowhead (Pygmaea)); experiment: as above; format: in vivo, Sagittaria pygmaea; conditions: rated 3-4 weeks after treatment
How it was run: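 Using flooded silt loam (water 1.5 to 3 cm deep), seeds sown in the top 0.5 cm were exposed preemergence to compound pipetted into the flood at about 0.0313 to 0.500 kg/ha. Effects were scored 0-9 by eye three to four weeks later.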

[9] = test system: CHEAL (Lambsquarters, Common); experiment: Postemergence herbicidal evaluation; format: in vivo, Chenopodium album; conditions: postemergence
How it was run: as §2

[10] = test system: CYPSE (Flatsedge); experiment: Postemergence weed control under flooded paddy conditions; format: in vivo, Cyperus serotinus; conditions: postemergence weeds, rated 3 to 4 weeks after treatment
How it was run: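 Injury ratings (0–9 scale covering stand, vigor, malformation, size, chlorosis and overall appearance versus control) were made three to four weeks after treatment. Test material, about 0.0313 to 0.500 kg/ha a.i. in 50/50 v/v aqueous/acetone, was added to flood water 1.5 to 3 cm deep over 3 to 5 cm weeds and 1.5 to 2.5 leaf rice.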

[11] = test system: SETVI (Foxtail, Green); experiment: Preemergence herbicidal evaluation; format: in vivo, Setaria viridis; conditions: rated 4-5 weeks after treatment
How it was run: as §1

[12] = test system: ECHCG (Barnyardgrass); experiment: Postemergence herbicidal evaluation; format: in vivo, Echinochloa crus-galli; conditions: postemergence
How it was run: as §2

[13] = test system: GALAP (Galium); experiment: Preemergence herbicidal evaluation; format: in vivo, Galium aparine; conditions: rated 4-5 weeks after treatment
How it was run: as §1

C[C@H](C(=O)O)N1C(=O)CSC1=Nc1cc(-n2c(=O)cc(C(F)(F)F)n(C)c2=O)c(F)cc1Cl [Compound 70, 2-{{2-Chloro-5-[3,6-dihydro-3-methyl-2,6-dioxo-4-(trifluoromethyl)-1(2H)-pyrimidinyl]-4-fluoro-phenyl}imino}-α-methyl-4-oxo-3-thiazolidineacetic acid, D-]
Preemergence herbicidal rating GLXMAW ([1]; rate 0.0156 kg/ha): 0.0
Preemergence herbicidal rating GLXMAW ([1]; rate 0.0313 kg/ha): 0.0
Preemergence herbicidal rating GLXMAW ([1]; rate 0.0625 kg/ha): 0.0
Preemergence herbicidal rating GLXMAW ([1]; rate 0.1250 kg/ha): 0.0
Preemergence herbicidal rating GLXMAW ([1]; rate 0.2500 kg/ha): 2.0
CASOB herbicidal rating ([2]; rate 0.0158 kg/ha): 0.0
CASOB herbicidal rating ([2]; rate 0.0315 kg/ha): 0.0
CASOB herbicidal rating ([2]; rate 0.0630 kg/ha): 3.0
Preemergence herbicidal rating TRZAWR ([3]; rate 0.0156 kg/ha): 0.0
Preemergence herbicidal rating TRZAWR ([3]; rate 0.0313 kg/ha): 0.0
Preemergence herbicidal rating TRZAWR ([3]; rate 0.0625 kg/ha): 0.0
Preemergence herbicidal rating TRZAWR ([3]; rate 0.1250 kg/ha): 1.0
Preemergence herbicidal rating TRZAWR ([3]; rate 0.2500 kg/ha): 5.0
Preemergence herbicidal rating ORYSAT ([4]; rate 0.0156 kg/ha): 0.0
Preemergence herbicidal rating ORYSAT ([4]; rate 0.0313 kg/ha): 0.0
Preemergence herbicidal rating ORYSAT ([4]; rate 0.0625 kg/ha): 0.0
Preemergence herbicidal rating ORYSAT ([4]; rate 0.1250 kg/ha): 1.0
Preemergence herbicidal rating ORYSAT ([4]; rate 0.2500 kg/ha): 3.0
Preemergence herbicidal rating ZEAMX ([5]; rate 0.0156 kg/ha): 0.0
Preemergence herbicidal rating ZEAMX ([5]; rate 0.0313 kg/ha): 0.0
Preemergence herbicidal rating ZEAMX ([5]; rate 0.0625 kg/ha): 0.0
Preemergence herbicidal rating ZEAMX ([5]; rate 0.1250 kg/ha): 1.0
Preemergence herbicidal rating ZEAMX ([5]; rate 0.2500 kg/ha): 3.0
ORYSAT herbicidal rating ([6]; rate 0.0158 kg/ha): 2.5
ORYSAT herbicidal rating ([6]; rate 0.0315 kg/ha): 3.5
ORYSAT herbicidal rating ([6]; rate 0.0630 kg/ha): 5.0
CYPIR herbicidal effect rating ([7]; 0.0313 kg/ha): 0.0
CYPIR herbicidal effect rating ([7]; 0.0625 kg/ha): 2.0
CYPIR herbicidal effect rating ([7]; 0.1250 kg/ha): 2.0
CYPIR herbicidal effect rating ([7]; 0.2500 kg/ha): 2.0
SAGPY herbicidal effect rating ([8]; 0.0313 kg/ha): 4.0
SAGPY herbicidal effect rating ([8]; 0.0625 kg/ha): 4.0
SAGPY herbicidal effect rating ([8]; 0.1250 kg/ha): 4.0
SAGPY herbicidal effect rating ([8]; 0.2500 kg/ha): 4.0
CHEAL herbicidal rating ([9]; rate 0.0158 kg/ha): 4.0
CHEAL herbicidal rating ([9]; rate 0.0315 kg/ha): 9.0
Herbicidal rating CYPSE ([10]; Rate 0.0313 kg/ha): 0.0
Herbicidal rating CYPSE ([10]; Rate 0.0625 kg/ha): 0.0
Herbicidal rating CYPSE ([10]; Rate 0.1250 kg/ha): 0.0
Herbicidal rating CYPSE ([10]; Rate 0.2500 kg/ha): 3.0
Preemergence herbicidal rating SETVI ([11]; rate 0.0156 kg/ha): 0.0
Preemergence herbicidal rating SETVI ([11]; rate 0.0313 kg/ha): 0.0
Preemergence herbicidal rating SETVI ([11]; rate 0.0625 kg/ha): 2.0
Preemergence herbicidal rating SETVI ([11]; rate 0.1250 kg/ha): 9.0
Preemergence herbicidal rating SETVI ([11]; rate 0.2500 kg/ha): 9.0
ECHCG herbicidal rating ([12]; rate 0.0158 kg/ha): 0.0
ECHCG herbicidal rating ([12]; rate 0.0315 kg/ha): 2.0
ECHCG herbicidal rating ([12]; rate 0.0630 kg/ha): 9.0
Preemergence herbicidal rating GALAP ([13]; rate 0.0156 kg/ha): 0.0
Preemergence herbicidal rating GALAP ([13]; rate 0.0313 kg/ha): 0.0
Preemergence herbicidal rating GALAP ([13]; rate 0.0625 kg/ha): 0.0
Preemergence herbicidal rating GALAP ([13]; rate 0.1250 kg/ha): 0.0
Preemergence herbicidal rating GALAP ([13]; rate 0.2500 kg/ha): 0.0

CC(C)C[C@@H](C(=O)O)N1C(=O)CSC1=Nc1cc(-n2c(=O)cc(C(F)(F)F)n(C)c2=O)c(F)cc1Cl [Compound 71, α-Isobutyl-2-{{2-chloro-5-[3,6-dihydro-3-methyl-2,6-dioxo-4-(trifluoromethyl)-1(2H)-pyrimidinyl]-4-fluorophenyl}imino}-4-oxo-3-thiazolidineacetic acid, L-]
Preemergence herbicidal rating GLXMAW ([1]; rate 0.0156 kg/ha): 1.0
Preemergence herbicidal rating GLXMAW ([1]; rate 0.0313 kg/ha): 0.0
Preemergence herbicidal rating GLXMAW ([1]; rate 0.0625 kg/ha): 1.0
Preemergence herbicidal rating GLXMAW ([1]; rate 0.1250 kg/ha): 3.0
CASOB herbicidal rating ([2]; rate 0.0158 kg/ha): 2.0
CASOB herbicidal rating ([2]; rate 0.0315 kg/ha): 3.0
CASOB herbicidal rating ([2]; rate 0.0630 kg/ha): 4.0
Preemergence herbicidal rating TRZAWR ([3]; rate 0.0156 kg/ha): 0.0
Preemergence herbicidal rating TRZAWR ([3]; rate 0.0313 kg/ha): 0.0
Preemergence herbicidal rating TRZAWR ([3]; rate 0.0625 kg/ha): 0.0
Preemergence herbicidal rating TRZAWR ([3]; rate 0.1250 kg/ha): 1.0
Preemergence herbicidal rating TRZAWR ([3]; rate 0.2500 kg/ha): 3.0
Preemergence herbicidal rating ORYSAT ([4]; rate 0.0156 kg/ha): 0.0
Preemergence herbicidal rating ORYSAT ([4]; rate 0.0313 kg/ha): 0.0
Preemergence herbicidal rating ORYSAT ([4]; rate 0.0625 kg/ha): 0.0
Preemergence herbicidal rating ORYSAT ([4]; rate 0.1250 kg/ha): 1.0
Preemergence herbicidal rating ORYSAT ([4]; rate 0.2500 kg/ha): 3.0
Preemergence herbicidal rating ZEAMX ([5]; rate 0.0156 kg/ha): 0.0
Preemergence herbicidal rating ZEAMX ([5]; rate 0.0313 kg/ha): 0.0
Preemergence herbicidal rating ZEAMX ([5]; rate 0.0625 kg/ha): 0.0
Preemergence herbicidal rating ZEAMX ([5]; rate 0.1250 kg/ha): 3.0
Preemergence herbicidal rating ZEAMX ([5]; rate 0.2500 kg/ha): 3.0
ORYSAT herbicidal rating ([6]; rate 0.0158 kg/ha): 3.0
ORYSAT herbicidal rating ([6]; rate 0.0315 kg/ha): 3.5
ORYSAT herbicidal rating ([6]; rate 0.0630 kg/ha): 4.5
CYPIR herbicidal effect rating ([7]; 0.1250 kg/ha): 3.0
CYPIR herbicidal effect rating ([7]; 0.2500 kg/ha): 7.0
SAGPY herbicidal effect rating ([8]; 0.1250 kg/ha): 0.0
SAGPY herbicidal effect rating ([8]; 0.2500 kg/ha): 0.0
CHEAL herbicidal rating ([9]; rate 0.0158 kg/ha): 6.0
CHEAL herbicidal rating ([9]; rate 0.0315 kg/ha): 7.0
Herbicidal rating CYPSE ([10]; Rate 0.1250 kg/ha): 3.0
Herbicidal rating CYPSE ([10]; Rate 0.2500 kg/ha): 3.0
Preemergence herbicidal rating SETVI ([11]; rate 0.0156 kg/ha): 0.0
Preemergence herbicidal rating SETVI ([11]; rate 0.0313 kg/ha): 0.0
Preemergence herbicidal rating SETVI ([11]; rate 0.0625 kg/ha): 0.0
Preemergence herbicidal rating SETVI ([11]; rate 0.1250 kg/ha): 4.0
Preemergence herbicidal rating SETVI ([11]; rate 0.2500 kg/ha): 9.0
ECHCG herbicidal rating ([12]; rate 0.0158 kg/ha): 4.0
ECHCG herbicidal rating ([12]; rate 0.0315 kg/ha): 4.0
ECHCG herbicidal rating ([12]; rate 0.0630 kg/ha): 4.0
Preemergence herbicidal rating GALAP ([13]; rate 0.0156 kg/ha): 0.0
Preemergence herbicidal rating GALAP ([13]; rate 0.0313 kg/ha): 0.0
Preemergence herbicidal rating GALAP ([13]; rate 0.0625 kg/ha): 0.0
Preemergence herbicidal rating GALAP ([13]; rate 0.1250 kg/ha): 9.0
Preemergence herbicidal rating GALAP ([13]; rate 0.2500 kg/ha): 6.0
